Results taken from US20100184683A1, “ANTIBACTERIAL AND ANTIFUNGAL PEPTIDES” (C3 JIAN, INC., priority 2009, published 2010).
Values after ≈ are worked out from the molar mass of the structure shown. Where two headings read alike, the source gives them in different places. Ends that are not written are not given here. Peptide text beside a SMILES is read from it.

Tests used:
A. baumannii = format: cell-based, Acinetobacter baumannii
Experimental: (§1) In certain embodiments the MIC assays are performed as described herein in the Examples. For each organism, the media and growth conditions utilized is detailed in Table 8.
(§2) In certain embodiments the MIC assays are performed as follows: For each organism, the media and growth conditions utilized is detailed in Table 8.

MRSA = format: cell-based, Methicillin-resistant Staphylococcus aureus; settings: MRSA; BHI supplemented with 2% glucose, 37° C., aerobic; inoculum 10^5 CFU/ml; 18-24 h or 48 h
Experimental: as §1, §2

B. subtilis = format: cell-based, Bacillus subtilis; settings: B. subtilis; BHI, 30° C., aerobic; inoculum 10^5 CFU/ml; 18-24 h or 48 h
Experimental: as §1, §2

P. gingivalis = format: cell-based, Porphyromonas gingivalis
Experimental: as §1, §2

S. epidermidis = format: cell-based
Experimental: as §1, §2

A. naeslundii = format: cell-based, Actinomyces naeslundii
Experimental: as §1, §2

S. mutans = format: cell-based, Streptococcus mutans
Experimental: as §1, §2

A. niger = format: cell-based, Aspergillus niger
Experimental: as §1, §2

T. rubrum = format: cell-based, Trichophyton rubrum
Experimental: as §1, §2

Compound: CC[C@H](C)[C@H](NC(=O)CNC(=O)[C@@H](N)CCSC)C(=O)N[C@H](C(=O)N[C@@H](C)C(=O)NCC(=O)N[C@H](C(=O)N[C@H](C(=O)N[C@@H](CCCCN)C(=O)N[C@@H](Cc1ccccc1)C(=O)N[C@H](C(=O)N[C@@H](CCCCN)C(=O)NCC(=O)N[C@@H](CC(C)C)C(=O)N[C@H](C(=O)N[C@@H](CCC(=O)O)C(=O)N[C@@H](CCCCN)C(=O)N[C@@H](Cc1ccccc1)C(=O)N[C@H](C(=O)NCC(=O)N[C@@H](CCCCN)C(=O)O)[C@@H](C)O)[C@@H](C)CC)[C@@H](C)CC)[C@@H](C)CC)[C@@H](C)CC)[C@@H](C)CC [PF-006]
- MIC (A. baumannii; A. baumannii, LB, 30° C., anaerobic, inoculum 10^5 CFU/ml, 18-24 h or 48 h): 50 µM (≈ 114 µg/mL)
- MIC (MRSA): 50 µM (≈ 114 µg/mL)
- MIC (B. subtilis): 25 µM (≈ 56.9 µg/mL)

Compound: MPVSKKRYMLSSAYATALGICYGQVATDEKESEITAIPDLLDYLSVEEYLL [PF-C163]
- MIC (P. gingivalis): 50 µM
- MIC (S. epidermidis): 50 µM
- MIC (A. naeslundii): 50 µM

Compound: CC[C@H](C)[C@H](NC(=O)[C@H](CCCNC(=N)N)NC(=O)[C@@H]1CCCN1C(=O)[C@H](CCC(=O)O)NC(=O)[C@H](CC(C)C)NC(=O)[C@@H]1CCCN1C(=O)[C@H](CC(=O)O)NC(=O)[C@@H](N)CC(C)C)C(=O)N[C@@H](C)C(=O)N1CCC[C@H]1C(=O)N1CCC[C@H]1C(=O)NCC(=O)N[C@@H](CC(=O)O)C(=O)N[C@@H](CCCNC(=N)N)C(=O)N[C@@H](CO)C(=O)N[C@@H](Cc1c[nH]cn1)C(=O)N[C@@H](CCC(N)=O)C(=O)NCC(=O)N[C@@H](C)C(=O)N1CCC[C@H]1C(=O)N[C@@H](C)C(=O)N[C@@H](CS)C(=O)N[C@@H](Cc1c[nH]cn1)C(=O)N[C@@H](CCCNC(=N)N)C(=O)N[C@@H](CC(=O)O)C(=O)N1CCC[C@H]1C(=O)N[C@@H](CC(C)C)C(=O)N[C@@H](CCCNC(=N)N)C(=O)NCC(=O)N[C@@H](CCCNC(=N)N)C(=O)N[C@@H](CO)C(=O)N[C@@H](C)C(=O)N[C@@H](CCCNC(=N)N)C(=O)N[C@@H](CC(=O)O)C(=O)N[C@@H](C)C(=O)N[C@@H](CCC(=O)O)C(=O)N[C@@H](CCCNC(=N)N)C(=O)O [PF-C019] (H-LDPLEPRIAPPGDRSHQGAPACHRDPLRGRSARDAER-OH; N-terminus and C-terminus assumed)
- MIC (S. mutans): 25 µM (≈ 102 µg/mL)
- MIC (A. niger): 50 µM (≈ 204 µg/mL)
- MIC (T. rubrum): 50 µM (≈ 204 µg/mL)

Compound: CC[C@H](C)[C@H](NC(=O)[C@H](CO)NC(=O)[C@H](CC(C)C)NC(=O)[C@H](CCSC)NC(=O)[C@H](CC(C)C)NC(=O)[C@H](CCC(=O)O)NC(=O)CNC(=O)[C@H](CCCCN)NC(=O)[C@H](Cc1ccc(O)cc1)NC(=O)[C@H](CCC(=O)O)NC(=O)[C@H](CCCCN)NC(=O)[C@@H](NC(=O)[C@@H](NC(=O)[C@@H](NC(=O)[C@H](CCCCN)NC(=O)[C@H](CCCNC(=N)N)NC(=O)[C@H](CC(C)C)NC(=O)[C@@H](NC(=O)[C@H](CCCCN)NC(=O)[C@H](Cc1ccccc1)NC(=O)[C@H](CCCCN)NC(=O)[C@@H](N)CO)C(C)C)[C@@H](C)CC)[C@@H](C)CC)[C@@H](C)CC)C(=O)N[C@@H](CCC(N)=O)C(=O)N[C@@H](CCCCN)C(=O)N[C@@H](CCC(N)=O)C(=O)N[C@@H](CCCNC(=N)N)C(=O)O [PF-530] (H-SKFKVLRKIIIKEYKGELMLSIQKQR-OH; N-terminus and C-terminus assumed)
- MIC (A. baumannii): 25 µM (≈ 79.4 µg/mL)
